# Reference: US10434181B2, “Oligomer-containing benzamide-based compounds” (Nektar Therapeutics, priority 2012, dated 2019)
# Several values for one entry are separate records, joined by “and”; a condition that tells them apart may be missing. Equal values may be shown once. Read-outs that look alike come from different tables or passages of the source. Marks after values point to notes of the source that are not given here.
# What was measured:
# CYP2D6 [1] = target: T1, CYP2D6 (Homo sapiens, UniProt P10635); conditions: cited from earlier work
# T1 sequence (P10635 whole entry): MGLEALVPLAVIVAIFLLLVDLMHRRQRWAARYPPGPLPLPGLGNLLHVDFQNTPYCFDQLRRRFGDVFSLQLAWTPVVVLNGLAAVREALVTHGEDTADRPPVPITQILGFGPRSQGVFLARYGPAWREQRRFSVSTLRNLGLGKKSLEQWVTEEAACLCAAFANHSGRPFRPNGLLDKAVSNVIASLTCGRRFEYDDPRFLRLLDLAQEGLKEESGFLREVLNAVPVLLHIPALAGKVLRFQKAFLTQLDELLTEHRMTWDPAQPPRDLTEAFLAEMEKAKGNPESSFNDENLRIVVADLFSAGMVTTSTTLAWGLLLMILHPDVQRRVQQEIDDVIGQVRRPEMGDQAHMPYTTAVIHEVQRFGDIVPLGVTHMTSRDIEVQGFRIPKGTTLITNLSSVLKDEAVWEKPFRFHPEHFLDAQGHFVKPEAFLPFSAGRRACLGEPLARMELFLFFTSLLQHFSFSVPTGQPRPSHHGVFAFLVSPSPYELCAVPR
# [2] = Chemical stability in potassium phosphate buffer; type: physicochemical; conditions: 100 mM potassium phosphate buffer, pH 7.4 at 37° C. for up to 30 minutes
# Protocol: FIG. 5B is a plot of the results of a chemical stability study of test articles in a 100 mM potassium phosphate buffer, pH 7.4 at 37° C. for up to thirty minutes.
# dopamine 2S receptor = target: T2, dopamine 2S receptor (Homo sapiens, UniProt P14416); test: β-Arrestin functional assay (dopamine), antagonist mode; type: cell-based; conditions: for IC50: β-arrestin interaction, CHO-K1 cells expressing D2S, dopamine at EC80 (400 nM); for Fold-change Relative to Parent: IC50 relative to metoclopramide, D2S β-arrestin
# T2 construct: host or cells: CHO-K1 (PathHunter eXpress β-arrestin cells)
# T2 sequence (P14416 1-414 isoform P14416-2): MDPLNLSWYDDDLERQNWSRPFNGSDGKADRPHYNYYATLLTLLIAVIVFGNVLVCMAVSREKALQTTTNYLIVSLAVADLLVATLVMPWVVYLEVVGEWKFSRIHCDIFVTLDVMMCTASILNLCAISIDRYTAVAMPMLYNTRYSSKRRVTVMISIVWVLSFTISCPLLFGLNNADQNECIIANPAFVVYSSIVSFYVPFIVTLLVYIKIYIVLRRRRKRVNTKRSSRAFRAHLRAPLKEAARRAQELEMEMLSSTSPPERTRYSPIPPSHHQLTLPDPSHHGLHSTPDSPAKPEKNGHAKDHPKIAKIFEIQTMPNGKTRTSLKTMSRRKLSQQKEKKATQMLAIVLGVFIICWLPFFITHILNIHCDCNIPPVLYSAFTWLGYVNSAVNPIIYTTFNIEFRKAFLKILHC
# [3] = system: Sprague-Dawley rat hepatocytes; test: MetID determination in rat hepatocytes; type: in vitro ADME; conditions: for major metabolic pathway: rat hepatocytes
# Protocol: (§1) Cryopreserved human and Sprague-Dawley rat hepatocytes were thawed in a 37° C. water bath. […] Samples were obtained from separate plates for each time point during the incubation. At each sampling time, the plates were removed from the incubator, quenched by adding 100 μL cold acetonitrile, and placed in an ice bath until centrifugation at 4,000 rpm for 30 minutes at 4° C. Supernatants were stored at or below −70° C. until LC-MS/MS analysis could be conducted. The liquid chromatography system used was Agilent 1100 Autosampler, Binary Pump, DAD and Column Enclosure. Tandem mass spectrometry was conducted using a Thermo DECA XP MAX Ion Trap Mass Spectrometer. The ion source was Electrospray (+) and the LC column used was a Varian, Polaris 5 C18-A (250×2.1 mm, 5 micron) column.
# (§2) Metabolic pathways of metoclopramide and conjugates were determined in rat and human hepatocytes. N-dealkylation was the major metabolic pathway for metoclopramide in rats, and metabolism in human hepatocytes was minimal. […] FIG. 2 and FIG. 3 show the metabolic pathway of for mPEG1-N-metoclopramide and mPEG4-N-metoclopramide, respectively. […] In this figure, different metabolites for each conjugate are denoted with the “M” and correspond to the designation provided in the figure for a given conjugate. For example, metabolite M1 for mPEG1-N-metoclopramide in Table 6 corresponds to M1 in FIG. 2, metabolite M2 for mPEG4-N-metoclopramide in Table 6 corresponds to M2 in FIG. 3 and metabolite M3 mPEG8-N-metoclopramide in Table 6 corresponds to M3 in FIG. 4.
# human hepatocytes = test: MetID determination in human hepatocytes; type: in vitro ADME
# Protocol: as §1, §2
# [4] = target: T3, 5HT3A receptors (serotonin 3A receptors) (Homo sapiens, UniProt P46098); test: Competition binding assay (serotonin 3A receptors), [3H]GR65630; conditions: for IC50: [3H]GR65630 competition, HEK 293 membranes expressing 5HT3A; for Fold-change Relative to Parent: IC50 relative to metoclopramide, 5HT3A binding
# T3 construct: expressed in transfected cells
# T3 sequence (P46098 24-478): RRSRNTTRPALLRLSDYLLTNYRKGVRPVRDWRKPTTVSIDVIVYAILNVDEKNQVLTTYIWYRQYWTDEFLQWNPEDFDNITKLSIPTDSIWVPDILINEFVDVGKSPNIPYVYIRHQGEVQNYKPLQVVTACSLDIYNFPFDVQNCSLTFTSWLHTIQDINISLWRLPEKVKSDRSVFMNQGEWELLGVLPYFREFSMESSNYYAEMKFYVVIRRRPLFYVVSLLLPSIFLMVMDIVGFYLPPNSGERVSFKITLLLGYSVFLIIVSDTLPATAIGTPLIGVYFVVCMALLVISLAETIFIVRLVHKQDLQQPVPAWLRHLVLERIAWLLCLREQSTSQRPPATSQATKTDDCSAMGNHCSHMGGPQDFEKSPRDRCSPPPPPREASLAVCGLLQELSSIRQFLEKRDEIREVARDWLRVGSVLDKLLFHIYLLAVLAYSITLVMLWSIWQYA
# Protocol: [^3H] […] To start the assay, 1 uL of compound was added into 96-well v-bottom plates, followed by the addition of 50 uL of diluted membrane preparation, then finally diluted [^3H] […] The assay mixture was incubated for 60 minutes at room temperature with shaking. Following incubation, bound [^3H] […] Filter plates were air dried for two minutes, and then 50 uL of MicroScint-20 was added into each well. Radioactivity counts were quantified using a Top Count plate reader (Perkin Elmer). Data was analyzed using one-site binding competition non-linear regression curve fitting on GraphPad Prism.
# dopamine 2L receptors [5] = target: T4, dopamine 2L receptors (Homo sapiens, UniProt P14416); conditions: read-out: expected IC50; expected value; cited from earlier work
# T4 sequence (P14416 whole entry): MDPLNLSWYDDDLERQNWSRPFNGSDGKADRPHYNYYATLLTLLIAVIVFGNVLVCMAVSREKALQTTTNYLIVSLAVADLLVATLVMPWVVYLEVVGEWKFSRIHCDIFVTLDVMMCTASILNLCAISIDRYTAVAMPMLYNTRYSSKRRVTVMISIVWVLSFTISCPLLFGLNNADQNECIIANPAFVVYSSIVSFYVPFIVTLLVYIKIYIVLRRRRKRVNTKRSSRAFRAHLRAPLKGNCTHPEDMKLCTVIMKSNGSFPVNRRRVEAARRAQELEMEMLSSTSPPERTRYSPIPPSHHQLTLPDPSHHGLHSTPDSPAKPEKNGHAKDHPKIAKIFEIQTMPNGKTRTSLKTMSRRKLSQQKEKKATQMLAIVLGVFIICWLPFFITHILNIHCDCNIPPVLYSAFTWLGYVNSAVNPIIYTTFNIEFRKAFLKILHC
# [6] = Rat PK (intravenous and oral); conditions: for CLRen: intravenous, 0.5 mg/kg; for Clast / Tlast: oral gavage, 2.5 mg/Kg
# Protocol: (§3) Rat pharmacokinetic (“PK”) characterization was conducted in male Sprague Dawley Rats (Rattus Norvegicus) weighing between 210-260 gm (Charles River Laboratories (Hollister, Calif.)). Rats were fed a standard diet and water was available ad-libidum at all times. […] Animals were dosed either orally (2.5 mg/Kg) via gavage or intravenously (0.5 mg/kg) via the jugular vein cannula. Blood samples (˜0.15 mL) were collected through carotid artery cannula at respective time points and transferred immediately into K2EDTA-coated tubes (that contain quenching media-acetic acid, PMSF and Dichlorvos) and placed on ice. The samples were centrifuged within thirty minutes after collection at 10,000 RPM for five minutes and the resulting plasma was separated. Plasma were transferred into microfuge tubes and placed on dry ice immediately. The plasma samples were stored at approximately −70° C. until shipped on dry ice for Bioanalysis by LC/MS/MS. Urine samples were collected using metabolic cages into a tube containing citric acid (4 mg for 0-4 and 4-8 hr interval and 16 mg for 8-24 hr interval) on wet ice at the intervals specified in the study design. After the completion of urine collection at each interval, each cage was rinsed with 2 mL of deionized water (1 mL each time). The rinse was collected in the separate labeled container (containing 2 mg of citric acid) as the urine. Following this rinse another 2 ml rinse was carried out with ethanol (1 ml each time). The rinse was also collected in the separate labeled container as the urine. Samples were stored frozen at −70° C. until bioanalysis by LC/MS/MS was performed.
# (§4) Pharmacokinetic parameters were determined by non-compartmental analysis using Phoenix®WinNonlin® (Version 6.3; Pharsight Corp., Mountain View, Calif.). Nominal doses and sampling times were used for the analysis. Concentrations reported as BLQ were treated as missing unless they were pre-dose; then they were set to zero. Maximum plasma concentration (Cmax) and time of observed maximum plasma analyte concentration (Tmax) were generated by Phoenix®WinNonlin®, directly from the inputed dataset. […] Area under the plasma concentration-time curve from time 0 to infinity (AUCinf) was calculated as the sum of AUClast and the last observed concentration divided by k. Total plasma clearance (CL) was calculated as Dose/AUCinf. Apparent volume of distribution at steady state (Vss) was calculated as MRTinf*CL, where MRT is the mean residence time.
# [7] = target: T3, 5HT3A receptors (serotonin 3A receptors); conditions: value in brackets after the IC50; cited from earlier work
# dopamine 2L receptors [8] = target: T4, dopamine 2L receptors; test: Competition binding assay (dopamine 2L receptors), [3H]methylspiperone; parameters: expressed in transfected cells; conditions: for Fold-change Relative to Parent: IC50 relative to metoclopramide, D2L binding
# Protocol: [^3H] Methylspiperone was diluted in assay buffer to a final concentration of 0.4 nM. To start the assay, 1 uL of compound was added into 96-well v-bottom plates, followed by the addition of 50 uL of diluted membrane preparation, then finally diluted [^3H] Methylspiperone was added. The assay mixture was incubated for 60 minutes at room temperature with shaking. Following incubation, bound [^3H] methylspiperone on 5% PEI soaked GF/B filter plates using a Filtermate Harvester (Perkin Elmer) were then washed four times with ice cold wash buffer (50 mM Tris-HCl, pH 7.5). Filter plates were air dried for two minutes, and then 50 uL of MicroScint-20 was added into each well. Radioactivity counts were quantified using a Top Count plate reader (Perkin Elmer). Data was analyzed using one-site binding competition non-linear regression curve fitting on GraphPad Prism.
# in vivo = conditions: male, Sprague Dawley, rat, plasma; for AUC(0-inf) / MRT inf / Vd / clearance / half-life: iv, 0.5 mg/kg
# Protocol: as §3, §4
# [9] = target: T5, 5HT4B receptors (serotonin 4B receptors) (Homo sapiens, UniProt Q13639); conditions: value in brackets after the IC50; cited from earlier work
# T5 construct: expressed in transfected cells
# T5 sequence (Q13639 whole entry): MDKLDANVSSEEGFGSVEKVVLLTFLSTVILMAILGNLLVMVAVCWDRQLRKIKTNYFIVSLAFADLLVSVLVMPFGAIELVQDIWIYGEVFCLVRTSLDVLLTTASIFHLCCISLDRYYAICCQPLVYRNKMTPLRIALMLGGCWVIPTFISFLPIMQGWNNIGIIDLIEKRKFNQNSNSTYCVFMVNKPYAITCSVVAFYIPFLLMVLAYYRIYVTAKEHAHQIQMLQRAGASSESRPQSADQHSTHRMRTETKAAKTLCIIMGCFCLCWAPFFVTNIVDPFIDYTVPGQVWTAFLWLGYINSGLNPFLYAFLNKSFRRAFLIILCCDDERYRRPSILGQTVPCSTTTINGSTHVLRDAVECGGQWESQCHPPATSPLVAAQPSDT
# [10] = target: T5, 5HT4B receptors (serotonin 4B receptors); test: Competition binding assay (serotonin 4B receptors), [3H]GR113808; conditions: for Fold-change Relative to Parent: IC50 relative to metoclopramide, 5HT4B binding; for IC50: [3H]GR113808 competition, HEK 293 membranes expressing 5HT4B
# CYP2D6 [11] = target: T1, CYP2D6; test: Metabolic stability in human recombinant CYP2D6 enzyme; type: in vitro ADME; parameters: purchased Xenotech, LLC; conditions: 1 μM, 100 pmol/mL CYP2D6, up to 30 min, 37° C.
# [12] = target: serotonin 4 receptor (5HT4) (Homo sapiens, UniProt Q13639); test: cAMP accumulation assay (serotonin 4 receptors); type: cell-based
# Sequence of serotonin 4 receptor (5HT4) (Q13639 whole entry, species assumed): as the sequence (Q13639 whole entry) above
# [13] = incubation of 10 μM metoclopramide, parent and its metabolites M (FIG. 1)
# [14] = [3H]methylspiperone competition, HEK 293 membranes expressing D2L, read-out: IC50
# [15] = preliminary run that was not quality controlled, read-out: IC50, preliminary run
# [16] = incubation of 10 μM mPEG4-N-metoclopramide, parent and its metabolites M (FIG. 3)
structure (smiles),measurement,setting,value
"CCN(CC)CCNC(=O)c1cc(Cl)c(N)cc1OC [Metoclopramide, N-(2-diethylaminoethyl)-2-methoxy-4-amino-5-chlorobenzamide, reference compound]",time-dependent inhibition of CYP2D6 (literature / known),CYP2D6 [1]; as reported in the literature,CYP2D6 time-dependent inhibitor
same,chemical stability,[2],chemically stable
same,IC50,dopamine 2S receptor,0.0821 µM and 0.0822 µM
same,"% of Total Metabolism, Rat Hep 1 hr",[3]; [13],87%
same,"% of Total Metabolism, Rat Hep 4 hr",[3]; [13],61%
same,major metabolic pathway,[3],N-dealkylation
same,extent of metabolism in human hepatocytes,human hepatocytes,minimal
same,"% of Total Metabolism, Human Hep 1 hr",human hepatocytes; [13],96.8%
same,"% of Total Metabolism, Human Hep 4 hr",human hepatocytes; [13],97.5%
same,IC50,[4]; IC50 [M],6.86e-06 M
same,IC50,[4]; IC50 [nM],6.86e-06 M
same,IC50,dopamine 2L receptors [5],0.54 µM
same,CLRen,[6],7.2* mL/min/kg
same,Clast,[6],8.07 ng/mL
same,Tlast,[6],16 h
same,pKi,[7],5.9-6.4
same,IC50,dopamine 2L receptors [8]; [14],0.0842 µM
same,IC50,dopamine 2L receptors [8]; [15],0.932 µM
same,AUC(0-inf),in vivo,66.8 ng·h/mL
same,MRT inf,in vivo,32.4 min
same,Vd,in vivo,4.12 L/kg
same,clearance,in vivo,126 mL/min/kg
same,half-life,in vivo,30 min
same,AUC,"in vivo; po, 2.5 mg/kg",261 ng·h/mL
same,CL/F,"in vivo; po, 2.5 mg/kg",131 mL/min/kg
same,Cmax,"in vivo; po, 2.5 mg/kg",166 ng/mL
same,Tmax,"in vivo; po, 2.5 mg/kg",22.8 min
CN1[C@@H]2CC[C@H]1C[C@@H](OC(=O)c1c[nH]c3ccccc13)C2 [Tropisetron],pKi,[9],8.5-8.8
CCN(CCNC(=O)c1cc(Cl)c(N)cc1OC)CCOCCOCCOC [mPEG3-N-Metoclopramide],chemical stability,[2],chemically stable
same,Fold-change Relative to Parent,dopamine 2S receptor,25
same,IC50,dopamine 2S receptor,2.05 µM and 2.06 µM
same,Fold-change Relative to Parent,[4],23
same,IC50,[4]; read-out: IC50,0.00016 M
same,Fold-change Relative to Parent,[10],2.1
same,IC50,[10],31.8 µM
same,Fold-change Relative to Parent,dopamine 2L receptors [8],41
same,IC50,dopamine 2L receptors [8]; [14],3.45 µM
same,IC50,dopamine 2L receptors [8]; [15],4.65 µM and 13.1 µM
same,metabolism by human recombinant CYP2D6 enzyme,CYP2D6 [11],to a lesser degree than metoclopramide
CCN(CCNC(=O)c1cc(Cl)c(N)cc1OC)CCOCCOCCOCCOC [mPEG4-N-Metoclopramide],Fold-change Relative to Parent,dopamine 2S receptor,37.03
same,IC50,dopamine 2S receptor,3.04 µM
same,Fold-change Relative to Parent,"[12]; IC50 relative to metoclopramide, 5HT4 cAMP",0.62
same,IC50,"[12]; cAMP accumulation, CHO-K1 cells stably expressing 5HT4",0.644 µM and 0.64 µM
same,"% of Total Metabolism, Rat Hep 1 hr",[3]; [16],61.5%
same,"% of Total Metabolism, Rat Hep 4 hr",[3]; [16],16.1%
same,major metabolic pathway,[3],N-dealkylation
same,extent of metabolism in human hepatocytes,human hepatocytes,low metabolism
same,"% of Total Metabolism, Human Hep 1 hr",human hepatocytes; [16],100%
same,"% of Total Metabolism, Human Hep 4 hr",human hepatocytes; [16],93.7%
same,Fold-change Relative to Parent,[10],2.0
same,IC50,[10],30.7 µM
same,CLRen,[6],9.0 mL/min/kg
same,Clast,[6],3 ng/mL
same,Tlast,[6],5 h
same,Fold-change Relative to Parent,dopamine 2L receptors [8],38.7
same,IC50,dopamine 2L receptors [8]; [14],3.26 µM
same,AUC(0-inf),in vivo,63.5 ng·h/mL
same,MRT inf,in vivo,33.6 min
same,Vd,in vivo,7.17 L/kg
same,clearance,in vivo,133 mL/min/kg
same,half-life,in vivo,39 min
same,AUC,"in vivo; po, 2.5 mg/kg",41.4 ng·h/mL
same,Cmax,"in vivo; po, 2.5 mg/kg",16.6 ng/mL
same,Tmax,"in vivo; po, 2.5 mg/kg",120 min
same,bioavailability,"in vivo; po, 2.5 mg/kg",14.5%
CCN(CCNC(=O)c1cc(Cl)c(N)cc1OC)CCOCCOCCOCCOCCOC [mPEG5-N-Metoclopramide],chemical stability,[2],chemically stable
same,Fold-change Relative to Parent,dopamine 2S receptor,44.1
same,IC50,dopamine 2S receptor,3.62 µM
same,Fold-change Relative to Parent,[4],156
same,IC50,[4]; read-out: IC50,0.00107 M
same,Fold-change Relative to Parent,[10],3.8
same,IC50,[10],58.1 µM
same,Fold-change Relative to Parent,dopamine 2L receptors [8],98.5
same,IC50,dopamine 2L receptors [8]; [14],8.29 µM
same,IC50,dopamine 2L receptors [8]; [15],15.1 µM
same,metabolism by human recombinant CYP2D6 enzyme,CYP2D6 [11],to a lesser degree than metoclopramide
CCN(CCNC(=O)c1cc(Cl)c(N)cc1OC)CCOCCOCCOCCOCCOCCOC [mPEG6-N-Metoclopramide],chemical stability,[2],chemically stable
same,Fold-change Relative to Parent,dopamine 2S receptor,52.05
same,IC50,dopamine 2S receptor,4.27 µM and 4.28 µM
same,Fold-change Relative to Parent,[4],129
same,IC50,[4]; read-out: IC50,0.000885 M
same,Fold-change Relative to Parent,[10],3.8
same,IC50,[10],57.8 µM
same,Fold-change Relative to Parent,dopamine 2L receptors [8],92.1
same,IC50,dopamine 2L receptors [8]; [14],7.75 µM
same,metabolism by human recombinant CYP2D6 enzyme,CYP2D6 [11],to a lesser degree than metoclopramide
Fc1ccc([C@@H]2CCNC[C@H]2COc2ccc3c(c2)OCO3)cc1 [paroxetine],time-dependent inhibition of CYP2D6 (literature / known),CYP2D6 [1],time-dependent inhibitor of CYP2D6
